# In patent US20110092544A1, “FUNGICIDAL PYRIDINES” (E.I. DU PONT DE nemours and company, priority 2008, published 2011):
# Key:
# Format in all cases: in vivo
# [1] = test system: Erysiphe graminis f. sp. tritici; assay: Test A: wheat powdery mildew, preventive spray on wheat seedlings, visual disease rating; conditions: for pest or weed control at 200 ppm: Blumeria graminis, 192 h
# Method in brief: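 Acetone/water (50/50) suspension with 250 ppm surfactant sprayed to run-off on wheat seedlings (200 ppm ≈ 500 g/ha); inoculated next day with E. graminis spore dust. Incubated 8 days at 20° C, then visually rated 0–100% disease control versus untreated controls; tests at 200 ppm or 40 ppm.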
# [2] = test system: Puccinia recondite f. sp. tritici; assay: Test B: wheat leaf rust, preventive spray on wheat seedlings, visual disease rating; conditions: for pest or weed control at 200 ppm: 192 h
# Method in brief: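 Wheat seedlings were sprayed to run-off with compound suspension, 200 ppm (≈500 g/ha) or 40 ppm where marked, containing surfactant in acetone/water. Inoculation with Puccinia recondita spores followed one day later, then 24 h in saturated humidity at 20° C and 7 days at 20° C. Disease control was rated visually, 0–100% versus controls.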
# Septoria tritici = assay: Test C: wheat leaf blotch, preventive spray on wheat seedlings, visual disease rating; conditions: 200 ppm, 100 = 100% disease control, 0 = no control; for pest or weed control at 200 ppm: Zymoseptoria tritici, 504 h
# Method in brief: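 Wheat seedlings sprayed to run-off with compound in acetone/water plus 250 ppm surfactant at 200 ppm (≈500 g/ha), or 40 ppm where marked; inoculated with Septoria tritici next day. Held saturated at 20 °C for 48 h, then 19 days at 20 °C; disease control rated visually 0–100 versus controls.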
# Septoria nodorum = assay: Test D: wheat glume blotch, preventive spray on wheat seedlings, visual disease rating; conditions: for pest or weed control at 200 ppm: Parastagonospora nodorum, 216 h
# Method in brief: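 Compounds in 3% acetone, then 50/50 acetone–water with 250 ppm Trem 014, sprayed to run-off at 200 ppm (500 g/ha; some at 40 ppm) one day before spore inoculation. Held 48 h saturated at 20 °C, then 7 days at 20 °C; visual rating as % disease control vs untreated (0–100).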
# Alternaria solani = assay: Test E: tomato early blight, preventive spray on tomato seedlings, visual disease rating; conditions: for pest or weed control at 200 ppm: Alternaria solani, 168 h
# Method in brief: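 Seedlings sprayed to run-off with compound in acetone/water plus 250 ppm Trem 014 (200 ppm ≈ 500 g/ha), inoculated with spores next day. Held 48 h saturated at 27 °C, then 5 days at 20 °C; visual rating 0–100% disease control relative to controls.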
# Botrytis cinerea = assay: Test F: tomato botrytis, preventive spray on tomato seedlings, visual disease rating; conditions: for pest or weed control at 200 ppm: Botrytis cinerea, 120 h
# Method in brief: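 Tomato seedlings sprayed to run-off with compound suspended in acetone/water (50/50) plus 250 ppm Trem 014, at 200 ppm (≈500 g/ha) or 40 ppm where marked. Inoculated next day with B. cinerea spores, 48 h saturated atmosphere at 20 °C, then 3 days at 24 °C. Visual rating, 0–100% disease control relative to controls.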
# Rhizoctonia oryzae = assay: Test G: turf brown patch, preventive spray on creeping bent grass seedlings, visual disease rating; conditions: for pest or weed control at 200 ppm: Waitea circinata, in Agrostis stolonifera, 120 h
# Source text: (§1) General protocol for preparing test suspensions for Tests A-H: The test compounds were first dissolved in acetone in an amount equal to 3% of the final volume and then suspended at the desired concentration (in ppm) in acetone and purified water (50/50 mix) containing 250 ppm of the surfactant Trem® 014 (polyhydric alcohol esters). The resulting test suspensions were then used in tests A-H. Spraying a 200 ppm test suspension to the point of run-off on the test plants was the equivalent of a rate of 500 g/ha.
# The test suspension was sprayed to the point of run-off on creeping bent grass seedlings. The following day the seedlings were inoculated with a spore suspension of Rhizoctonia oryzae (the causal agent of turf brown patch) and incubated in a saturated atmosphere at 27° C. for 48 h, and then moved to a growth chamber at 27° C. for 3 days, after which time disease ratings were visually made.
# (§2) Results for Tests A-H are given in Table A. In the table, a rating of 100 indicates 100% disease control and a rating of 0 indicates no disease control (relative to the controls). A dash (-) indicates no test results. All results are for compounds tested at 200 ppm except where the compound number is followed by “*” which indicates the compound was tested at 40 ppm.
# Plasmopara viticola = assay: Test H: grape downy mildew, spray after inoculation of grape seedlings, visual disease rating; conditions: 200 ppm, 100 = 100% disease control, 0 = no control; for pest or weed control at 200 ppm: Plasmopara viticola, 192 h
# Source text: as §1
# Grape seedlings were inoculated with a spore suspension of Plasmopara viticola (the causal agent of grape downy mildew) and incubated in a saturated atmosphere at 20° C. for 24 h. After a short drying period, the test suspension was sprayed to the point of run-off on the grape seedlings, and then moved to a growth chamber at 20° C. for 6 days, after which time the test units were placed back into a saturated atmosphere at 20° C. for 24 h. Upon removal, disease ratings were visually made.
# as §2
# [3] = 200 ppm, 100 = 100% disease control, 0 = no control
# [4] = 40 ppm (compound number followed by *)
Structure (SMILES),"Test A rating (% disease control) [1, 3]","Test B rating (% disease control) [2, 3]",Test C rating (% disease control) (Septoria tritici),Test D rating (% disease control) (Septoria nodorum; [3]),Test E rating (% disease control) (Alternaria solani; [3]),Test F rating (% disease control) (Botrytis cinerea; [3]),Test G rating (% disease control) (Rhizoctonia oryzae; [3]),Test H rating (% disease control) (Plasmopara viticola),also measured
C=C(C)c1cnc(C)c(-c2c(F)cc(F)cc2F)c1-c1cc(OC)cc(OC)c1 [Compound 43],100%,100%,100%,78%,100%,100%,100%,–,–
COc1cc(OC)cc(-c2c(C(C)C)cnc(C)c2-c2c(F)cccc2F)c1 [Compound 45],99%,100%,100%,0%,94%,100%,99%,–,–
"COc1cc(OC)cc(-c2c(C(C)C)cnc(C)c2-c2ccc(F)cc2)c1 [Compound 19, 4-(3,5-dimethoxyphenyl)-3-(4-fluorophenyl)-2-methyl-5-(1-methylethyl)pyridine]",–,–,–,–,–,–,–,–,"pest or weed control at 200 ppm [1, 3]: 99%; pest or weed control at 200 ppm [2, 3]: 99%; pest or weed control at 200 ppm (Septoria tritici): 100%; pest or weed control at 200 ppm (Septoria nodorum; [3]): 0%; pest or weed control at 200 ppm (Alternaria solani; [3]): 99%; pest or weed control at 200 ppm (Botrytis cinerea; [3]): 99%; pest or weed control at 200 ppm (Rhizoctonia oryzae; [3]): 99%; pest or weed control at 200 ppm (Plasmopara viticola): 0%"
CCOC(=O)c1cnc(C)c(-c2ccccc2F)c1-c1cc(OC)cc(OC)c1 [Compound 20],98%,90%,100%,0%,0%,99%,0%,53%,–
COc1cc(OC)cc(-c2c(C(C)(C)O)c[n+]([O-])c(C)c2-c2ccccc2)c1 [Compound 52],25%,0%,–,0%,0%,0%,0%,0%,–
COc1cc(OC)cc(-c2c(-c3ccccc3)c(C)nc(C)c2-c2ccc(F)cc2)c1 [Compound 22],78%,55%,95%,0%,0%,99%,0%,0%,–
COc1cc(OC)cc(-c2c(-c3ccccc3F)cnc(C)c2-c2ccc(F)cc2)c1 [Compound 35],99%,100%,99%,99%,99%,99%,99%,0%,–
COc1cc(OC)cc(-c2c(-c3ccccc3)c(C)nc(C)c2-c2ccccc2F)c1 [Compound 23],62%,80%,83%,0%,0%,99%,0%,0%,–
COc1cc(OC)cc(-c2c(C(C)(C)O)cnc(C)c2-c2ccccc2F)c1 [Compound 18],98%,99%,100%,0%,–,97%,47%,0%,–
"COc1cc(OC)cc(-c2c(C(C)=O)cnc(C)c2-c2c(F)cc(F)cc2F)c1 [Compound 40, 1-[4-(3,5-dimethoxyphenyl)-6-methyl-5-(2,4,6-trifluorophenyl)-3-pyridinyl]ethanone]",–,–,–,–,–,–,–,–,"pest or weed control at 200 ppm [1, 3]: 94%; pest or weed control at 200 ppm [2, 3]: 80%; pest or weed control at 200 ppm (Septoria tritici): 87%; pest or weed control at 200 ppm (Septoria nodorum; [3]): 0%; pest or weed control at 200 ppm (Alternaria solani; [3]): 97%; pest or weed control at 200 ppm (Botrytis cinerea; [3]): 90%; pest or weed control at 200 ppm (Rhizoctonia oryzae; [3]): 49%; pest or weed control at 200 ppm (Plasmopara viticola): 0%"
COc1cc(OC)cc(-c2c(C(C)C)c[n+]([O-])c(C)c2-c2ccccc2)c1 [Compound 5],98%,92%,95%,0%,90%,99%,0%,0%,–
COc1cc(OC)cc(-c2c(C(C)C)cnc(C)c2-c2c(F)cc(F)cc2F)c1 [Compound 48],–,–,–,–,–,–,–,–,"Test A rating (% disease control) [1, 4]: 98%; Test B rating (% disease control) [2, 4]: 100%; Test D rating (% disease control) (Septoria nodorum; [4]): 0%; Test E rating (% disease control) (Alternaria solani; [4]): 99%; Test F rating (% disease control) (Botrytis cinerea; [4]): 98%; Test G rating (% disease control) (Rhizoctonia oryzae; [4]): 100%"
COc1cc(OC)cc(-c2c(C(C)=O)cnc(C)c2-c2c(F)cccc2F)c1 [Compound 41],100%,98%,99%,0%,99%,98%,99%,0%,–
COc1cc(OC)cc(-c2c(C(C)(C)O)cnc(C)c2-c2c(F)cccc2F)c1 [Compound 42],100%,100%,100%,98%,–,97%,86%,0%,–
COc1cc(OC)cc(-c2c(C(=O)N(C)C)cnc(C)c2-c2ccccc2)c1 [Compound 10],96%,0%,33%,0%,8%,80%,0%,0%,–
COc1cc(OC)cc(-c2c(C3=CCCCC3)cnc(C)c2-c2ccc(F)cc2)c1 [Compound 46],81%,95%,–,0%,31%,98%,0%,–,–
COc1cc(OC)cc(-c2c(C3CCCCC3)cnc(C)c2-c2ccc(F)cc2)c1 [Compound 47],91%,97%,–,0%,67%,96%,99%,–,–
